These results are taken from patent publication US12680065B2, “Artificial placenta and methods of preparation” (The Trustees of the University of Pennsylvania, priority 2015, dated 2026).

In one data set the test system is BeWo cells. The data set is described as follows: Forskolin-induced trophoblast syncytialization in the microfluidic device (immunofluorescence). In kind it is cell-based, human. How it is done:
(§1) Following the formation of a confluent epithelial monolayer on the membrane surface in the upper microchannel, the apical side of the epithelium can be treated with forskolin to activate the protein kinase A pathway in the cultured trophoblasts. A stock solution of forskolin (Sigmal 5 mg/mL in DMSO) can be diluted with F-12K medium to a final concentration of 50 uM and perfused through the upper microchannel. After 72 hours of forskolin treatment, the trophoblast cells can be fixed in 4% PFA, permeabilized in Triton-X 100, and then incubated with 2% BSA in PBS for immunofluorescence staining. To analyze changes in junctional protein expression, the samples can be incubated with anti-E-cadherin antibody (Life Technologies) in 2% BSA, followed by secondary antibody and DAPI. Additionally, media perfusate can be collected at 48, 72, and 96 hours from both untreated and forskolin-treated devices. The collected samples can be analyzed using a human chorionic gonadotropin beta (β-hCG) ELISA kit (Abcam) to quantify the levels of β-hCG produced by the trophoblast population at each time point.
Accordingly, when the BeWo cells in the maternal compartment are exposed to forskolin, they can begin to undergo cell-cell fusion as illustrated by nuclear aggregation that can be evident at 72 hours of forskolin treatment (FIG. 9B). […]

In the next data set the test system is trophoblast cells. The data set is described as follows: β-hCG ELISA of maternal compartment perfusate. In kind it is cell-based, human. The settings on record: 50 uM forskolin; no detectable β-hCG in the absence of forskolin. How it is done: as §1, with “([…]” for “(Sigmal”, “point. […] Accordingly, the production of the […] of hCG in the maternal compartment can be measured to quantitatively examine syncytialization. […]” for “point.”
(In general: An ELISA detects its analyte on a solid surface through an enzyme-linked reagent.)

`C=C[C@@]1(C)CC(=O)[C@]2(O)[C@@]3(C)[C@@H](O)CCC(C)(C)[C@@H]3[C@H](O)[C@H](OC(C)=O)[C@@]2(C)O1` [forskolin]: the “fraction of BeWo population undergoing cell-cell fusion (nuclear aggregation)” value with BeWo cells (50 uM forskolin in upper microchannel, 72 hours) was “approximately 50%”. In the data set on BeWo cells (50 uM forskolin, BeWo cells in maternal compartment), the “effect on cell viability” value is on record as “does not necessarily exert deleterious effects on cell viability”. For the same compound, in the data set with trophoblast cells, the “time to production of hCG by trophoblast cells” value was at most 48 h.
